Where “and” joins values, the source holds several entries; their conditions need not be identical. Equal entries are not always repeated. Inconclusive results and toxic doses are left out. Rule as the data show it: active = T/C of 150% or more; inactive = T/C below 125%.
Tested on: L1210 leukemia ip in BDF1 mice, survival T/C
Assay: NCI In Vivo Anticancer Drug Screen. Data for tumor model L1210 Leukemia (intraperitoneal) in B6D2F1 (BDF1) mice
Conditions: endpoint: mean survival time, higher = longer survival
Summary of the method: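 Transplantable tumor model; survival measured in treated vs vehicle control mice. Value = treated/control.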

[1] = dose: 100.0 mg/kg/injection, schedule: Q04DX003 (ip), vehicle: saline with Tween-80
[2] = dose: 200.0 mg/kg/injection, schedule: Q04DX003 (ip), vehicle: saline with Tween-80
[3] = dose: 400.0 mg/kg/injection, schedule: Q04DX003 (ip), vehicle: saline with Tween-80
[4] = dose: 100.0 mg/kg/injection, schedule: Q01DX009 (ip), vehicle: saline with Tween-80
[5] = dose: 200.0 mg/kg/injection, schedule: Q01DX009 (ip), vehicle: saline with Tween-80
[6] = dose: 400.0 mg/kg/injection, schedule: Q01DX009 (ip), vehicle: saline with Tween-80
[7] = dose: 50.0 mg/kg/injection, schedule: Q01DX009 (ip), vehicle: saline with Tween-80
[8] = dose: 50.0 mg/kg/injection, schedule: Q01DX009 (ip), vehicle: Klucel (hydroxypropylcellulose) (HPC)
[9] = dose: 100.0 mg/kg/injection, schedule: Q01DX009 (ip), vehicle: Klucel (hydroxypropylcellulose) (HPC)
[10] = dose: 100.0 mg/kg/injection, schedule: Q04DX003 (ip), vehicle: Klucel (hydroxypropylcellulose) (HPC)
[11] = dose: 200.0 mg/kg/injection, schedule: Q04DX003 (ip), vehicle: Klucel (hydroxypropylcellulose) (HPC)
[12] = dose: 400.0 mg/kg/injection, schedule: Q04DX003 (ip), vehicle: Klucel (hydroxypropylcellulose) (HPC)
[13] = dose: 200.0 mg/kg/injection, schedule: Q01DX009 (ip), vehicle: Klucel (hydroxypropylcellulose) (HPC)
[14] = dose: 400.0 mg/kg/injection, schedule: Q01DX009 (ip), vehicle: Klucel (hydroxypropylcellulose) (HPC)

Measured: T/C

ONc1ncnc2nc[nH]c12
inactive: dose: 7.5 mg/kg/injection, schedule: Q01DX009 (ip), vehicle: Klucel (hydroxypropylcellulose) (HPC) 121 % of control | dose: 15.0 mg/kg/injection, schedule: Q01DX009 (ip), vehicle: Klucel (hydroxypropylcellulose) (HPC) 119 % of control | dose: 30.0 mg/kg/injection, schedule: Q01DX009 (ip), vehicle: Klucel (hydroxypropylcellulose) (HPC) 117 % of control | dose: 50.0 mg/kg/injection, schedule: Q01DX009 (ip), vehicle: saline 114 % of control | dose: 60.0 mg/kg/injection, schedule: Q01DX009 (ip), vehicle: Klucel (hydroxypropylcellulose) (HPC) 121 % of control | dose: 100.0 mg/kg/injection, schedule: Q01DX001 (ip), vehicle: saline 110 % of control | dose: 200.0 mg/kg/injection, schedule: Q01DX001 (ip), vehicle: saline 112 % of control | dose: 200.0 mg/kg/injection, schedule: Q01DX009 (ip), vehicle: saline 114 % of control | dose: 400.0 mg/kg/injection, schedule: Q01DX001 (ip), vehicle: saline 114 % of control

Fc1ccc(NC(=S)SCc2ccc(Cl)cc2)cc1F
inactive: [1] 102 % of control | [2] 91 % of control | [3] 102 % of control

Nc1ccc2c(c1)C(=O)c1cc(N)c(Br)cc1-2
inactive: dose: 100.0 mg/kg/injection, schedule: Q01DX001 (ip), vehicle: carboxymethylcellulose (CMC) 93 % of control | dose: 200.0 mg/kg/injection, schedule: Q01DX001 (ip), vehicle: carboxymethylcellulose (CMC) 95 % of control | dose: 400.0 mg/kg/injection, schedule: Q01DX001 (ip), vehicle: carboxymethylcellulose (CMC) 98 % of control

CN(Cc1cnc2nc(N)nc(N)c2n1)c1ccc(C(=O)NC(CCC(=O)O)C(=O)O)cc1Cl (stereo not given)
active: dose: 2.0 mg/kg/injection, schedule: Q01DX015 (ip), vehicle: saline 291 % of control | dose: 7.5 mg/kg/injection, schedule: Q01DX015 (ip), vehicle: saline 166 % of control
inactive: dose: 1.25 mg/kg/injection, schedule: Q01DX001 (ip), vehicle: saline 114 % of control | dose: 2.5 mg/kg/injection, schedule: Q01DX001 (ip), vehicle: saline 114 % of control | dose: 5.0 mg/kg/injection, schedule: Q01DX001 (ip), vehicle: saline 118 % of control

CC(C)=CCC/C(C)=C/CN1C(=O)c2ccccc2C1=O
inactive: [4] 103 % of control | [1] 93 % of control | [5] 106 % of control | [2] 102 % of control | [6] 95 % of control | [3] 96 % of control

Cc1ccc(S(=O)(=O)Oc2ccccc2NC(=O)c2ccccc2)cc1
inactive: [7] 96 % of control | [4] 96 % of control

CC(Oc1ccccc1)C(=O)NC(=S)Nc1ccc(Cl)cc1 (stereo not given)
inactive: dose: 50.0 mg/kg/injection, schedule: Q01DX001 (ip), vehicle: saline with Tween-80 97 % of control | [7] 97 % of control and 98 % of control and 92 % of control | dose: 50.0 mg/kg/injection, schedule: Q04DX003 (ip), vehicle: saline with Tween-80 98 % of control | dose: 100.0 mg/kg/injection, schedule: Q01DX001 (ip), vehicle: saline with Tween-80 97 % of control | [4] 97 % of control and 98 % of control and 101 % of control | [1] 97 % of control | dose: 200.0 mg/kg/injection, schedule: Q01DX001 (ip), vehicle: saline with Tween-80 92 % of control | [2] 109 % of control

CN(C)Cc1cccc2ccccc12
inactive: [8] 95 % of control

CC/C(=C\c1ccc2ccccc2c1)[N+](=O)[O-]
inactive: dose: 75.0 mg/kg/injection, schedule: Q01DX001 (ip), vehicle: saline 97 % of control | dose: 150.0 mg/kg/injection, schedule: Q01DX001 (ip), vehicle: saline 103 % of control

O=C(CBr)OCC1CC2C=CC1C2 (stereo not given)
inactive: dose: 13.3 mg/kg/injection, schedule: Q01DX Z (ip), vehicle: methylcellulose (MC) 93 % of control | dose: 20.0 mg/kg/injection, schedule: Q01DX Z (ip), vehicle: methylcellulose (MC) 96 % of control | dose: 30.0 mg/kg/injection, schedule: Q01DX Z (ip), vehicle: methylcellulose (MC) 90 % of control

O=C(NNCc1ccccc1)c1ccccn1
inactive: dose: 12.5 mg/kg/injection, schedule: Q01DX009 (ip), vehicle: Klucel (hydroxypropylcellulose) (HPC) 102 % of control | dose: 25.0 mg/kg/injection, schedule: Q01DX009 (ip), vehicle: Klucel (hydroxypropylcellulose) (HPC) 94 % of control | [8] 97 % of control | [9] 94 % of control

COc1ccc(-n2c(=O)c(N=Nc3ccc(Cl)cc3)c(O)n(-c3ccc(I)cc3)c2=S)cc1
inactive: dose: 37.5 mg/kg/injection, schedule: Q01DX001 (ip), vehicle: Klucel (hydroxypropylcellulose) (HPC) 97 % of control | dose: 75.0 mg/kg/injection, schedule: Q01DX001 (ip), vehicle: Klucel (hydroxypropylcellulose) (HPC) 90 % of control | dose: 150.0 mg/kg/injection, schedule: Q01DX001 (ip), vehicle: Klucel (hydroxypropylcellulose) (HPC) 97 % of control

Cn1c(=O)c2c(nc(OCC3CCCCC3)n2C)n(C)c1=O
inactive: dose: 50.0 mg/kg/injection, schedule: Q01DX001 (ip), vehicle: other 94 % of control | dose: 100.0 mg/kg/injection, schedule: Q01DX001 (ip), vehicle: other 100 % of control | dose: 200.0 mg/kg/injection, schedule: Q01DX001 (ip), vehicle: other 94 % of control | dose: 400.0 mg/kg/injection, schedule: Q01DX001 (ip), vehicle: other 92 % of control

OC(Cc1cnc2ccccc2n1)C(Cl)(Cl)Cl (stereo not given)
inactive: [4] 102 % of control | [10] 90 % of control | [5] 97 % of control | [11] 95 % of control | [6] 94 % of control | [12] 108 % of control

CCOC(=O)C(=Cc1ccccc1OC)C(=O)OCC
inactive: dose: 100.0 mg/kg/injection, schedule: Q01DX001 (ip), vehicle: Klucel (hydroxypropylcellulose) (HPC) 100 % of control | [10] 94 % of control | dose: 200.0 mg/kg/injection, schedule: Q01DX001 (ip), vehicle: Klucel (hydroxypropylcellulose) (HPC) 111 % of control | [11] 100 % of control | dose: 400.0 mg/kg/injection, schedule: Q01DX001 (ip), vehicle: Klucel (hydroxypropylcellulose) (HPC) 111 % of control | [12] 92 % of control

CN(CC1CCCCC1=O)CC1CCCCC1=O (stereo not given)
inactive: dose: 100.0 mg/kg/injection, schedule: Q01DX001 (ip), vehicle: steriod suspending solution 97 % of control | dose: 200.0 mg/kg/injection, schedule: Q01DX001 (ip), vehicle: steriod suspending solution 104 % of control | dose: 400.0 mg/kg/injection, schedule: Q01DX001 (ip), vehicle: steriod suspending solution 106 % of control

CCOC(CN=Cc1cccc2ccccc12)OCC
inactive: [1] 95 % of control | [2] 93 % of control | [3] 95 % of control

CC(C(=O)c1ccc(Br)cc1)C(Br)c1ccccc1 (stereo not given)
inactive: [4] 95 % of control | [1] 96 % of control | [5] 95 % of control | [2] 91 % of control | [6] 95 % of control | [3] 98 % of control

O=C1c2ccccc2C(=O)N1CCOc1ccc([N+](=O)[O-])cc1Cl
inactive: dose: 50.0 mg/kg/injection, schedule: Q04DX003 (ip), vehicle: Klucel (hydroxypropylcellulose) (HPC) 102 % of control | [10] 101 % of control | [11] 100 % of control

COc1cc(Cl)ccc1NC(=O)Oc1ccc(F)cc1Cl
inactive: [9] 104 % of control | [13] 108 % of control | [14] 106 % of control

CCOC(=O)c1cnc(SC)nc1Nc1cccc(Br)c1
inactive: [9] 91 % of control | [10] 97 % of control | [13] 96 % of control | [11] 92 % of control | [14] 93 % of control | [12] 90 % of control

CCN(CC)CCCNC(=S)NC(C)(C)CC(C)=O
inactive: [8] 89 % of control | [9] 105 % of control | dose: 100.0 mg/kg/injection, schedule: Q04DX003 (ip), vehicle: saline 97 % of control | dose: 200.0 mg/kg/injection, schedule: Q04DX003 (ip), vehicle: saline 101 % of control | dose: 400.0 mg/kg/injection, schedule: Q04DX003 (ip), vehicle: saline 100 % of control

Cc1ccc(Oc2cccc(C(=O)O)c2)cc1
inactive: [10] 107 % of control | [11] 96 % of control | [12] 118 % of control

CC1CCOC(C)(CO)O1 (stereo not given)
inactive: dose: 100.0 mg/kg/injection, schedule: Q04DX002 (ip), vehicle: saline with Tween-80 98 % of control | dose: 200.0 mg/kg/injection, schedule: Q04DX002 (ip), vehicle: saline with Tween-80 95 % of control | dose: 400.0 mg/kg/injection, schedule: Q04DX002 (ip), vehicle: saline with Tween-80 98 % of control
